Results from ChEMBL document CHEMBL1201862, “PubChem BioAssay data set” (2004).
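Cells were grown in 96-well plates and exposed to each compound for 48 hours at five concentrations; endpoints were interpolated linearly between bracketing concentrations, or set to the highest concentration if not reached. Here, GI50 denotes the concentration required for 50% inhibition of growth.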 Activity calls are given as the source filed them. No stated cut-off is given here; in the data, active = GI50 up to about 1.1 µM and inactive = higher.

Experiments:
Experiment in all cases: DTP human tumour cell line panel, 48 h
[1] = test system: A498
[2] = test system: OVCAR-5
[3] = test system: ACHN
[4] = test system: EKVX
[5] = test system: K562
[6] = test system: 786-0
[7] = test system: RPMI-8226
[8] = test system: SW-620
[9] = test system: HCC 2998
[10] = test system: CAKI-1
[11] = test system: OVCAR-3
[12] = test system: SNB-19
[13] = test system: CCRF-CEM
[14] = test system: HOP-92
[15] = test system: UACC-257
[16] = test system: SK-MEL-5

With `NC(=O)c1ncn(C2OC(CO)C(O)C2O)c1O` (stereo unspecified) the GI50 [1] was > 100 µM (inactive), the GI50 [2] was 58.1 µM (inactive) and the GI50 [3] was > 100 µM (inactive). For the same molecule, the GI50 [4] was > 100 µM (inactive), the GI50 [5] was > 100 µM (inactive) and the GI50 [6] was > 100 µM (inactive). For the same molecule, the GI50 [7] was > 100 µM (inactive), the GI50 [8] was 44.4 µM (inactive) and the GI50 [9] was 56.8 µM (inactive). For the same molecule, the GI50 [10] was 83.4 µM (inactive), the GI50 [11] was 96.8 µM (inactive) and the GI50 [12] was > 100 µM (inactive). The GI50 [13] was > 100 µM (inactive) and the GI50 [14] was 46.8 µM (inactive).

`CCN(CC)C(=S)N/N=C(\C)c1ccccc1O` was tested, and the GI50 [1] was 20.5 µM (inactive), the GI50 [3] was 14.5 µM (inactive) and the GI50 [4] was 36.4 µM (inactive). For the same molecule, the GI50 [5] was 0.0568 µM (active), the GI50 [6] was 26.2 µM (inactive) and the GI50 [7] was 18.5 µM (inactive). The GI50 [15] was 27 µM (inactive), the GI50 [8] was 22.9 µM (inactive) and the GI50 [9] was 13.4 µM (inactive). The GI50 [10] was 18.4 µM (inactive), the GI50 [11] was 34.3 µM (inactive) and the GI50 [12] was 20.8 µM (inactive). The GI50 [16] was 10.7 µM (inactive) and the GI50 [13] was 5 µM (inactive).

`Nc1ccc(C(=O)N/C(=C\C=C\c2ccco2)c2nc3c4c(ccc3[nH]2)C(=O)c2ccccc2C4=O)cc1` was tested, and the GI50 [1] was 22.4 µM (inactive), the GI50 [2] was > 100 µM (inactive) and the GI50 [3] was 10.8 µM (inactive). The GI50 [4] was 28.1 µM (inactive), the GI50 [5] was 26.8 µM (inactive) and the GI50 [6] was 30.3 µM (inactive). The GI50 [7] was 3.21 µM (inactive), the GI50 [15] was > 100 µM (inactive) and the GI50 [8] was 33 µM (inactive). The GI50 [9] was 44.9 µM (inactive), the GI50 [10] was 24.6 µM (inactive) and the GI50 [11] was 32.9 µM (inactive). The GI50 [12] was 39.7 µM (inactive), the GI50 [16] was 38 µM (inactive) and the GI50 [13] was 1.09 µM (active). The GI50 [14] was 37 µM (inactive).

For `CCCCCCCCCCCCOC(=N)N1CCOCC1`, the GI50 [1] was 6.59 µM (inactive), the GI50 [2] was 14.9 µM (inactive) and the GI50 [3] was 14.2 µM (inactive). The GI50 [4] was 12.9 µM (inactive), the GI50 [5] was 1.88 µM (inactive) and the GI50 [6] was 14.1 µM (inactive). The GI50 [7] was 1.87 µM (inactive), the GI50 [15] was 9.35 µM (inactive) and the GI50 [8] was 4.11 µM (inactive). The GI50 [9] was 10.5 µM (inactive), the GI50 [10] was 4.13 µM (inactive) and the GI50 [11] was 14.9 µM (inactive). For the same molecule, the GI50 [12] was 18.5 µM (inactive), the GI50 [16] was 11 µM (inactive) and the GI50 [13] was 2.26 µM (inactive). The GI50 [14] was 1.32 µM (inactive).

With `O=C1C(c2ccccc2)=C(c2ccccc2)C(c2ccc(Cc3ccc(C4=C(c5ccccc5)C(=O)C(c5ccccc5)=C4c4ccccc4)cc3)cc2)=C1c1ccccc1` the GI50 [1] was > 100 µM (inactive), the GI50 [2] was > 100 µM (inactive) and the GI50 [4] was > 100 µM (inactive). The GI50 [5] was > 100 µM (inactive), the GI50 [6] was > 100 µM (inactive) and the GI50 [7] was > 100 µM (inactive). For the same molecule, the GI50 [15] was 64.9 µM (inactive), the GI50 [8] was > 100 µM (inactive) and the GI50 [10] was > 100 µM (inactive). For the same molecule, the GI50 [11] was > 100 µM (inactive), the GI50 [12] was > 100 µM (inactive) and the GI50 [16] was > 100 µM (inactive). The GI50 [13] was > 100 µM (inactive) and the GI50 [14] was > 100 µM (inactive).

For `COC(=O)C(=O)C(C#N)c1ccc(Cl)c(Cl)c1` (stereo unspecified), the GI50 [3] was > 100 µM (inactive), the GI50 [4] was 64.3 µM (inactive) and the GI50 [5] was > 100 µM (inactive). The GI50 [6] was > 100 µM (inactive), the GI50 [7] was > 100 µM (inactive) and the GI50 [15] was > 100 µM (inactive). The GI50 [8] was > 100 µM (inactive), the GI50 [10] was > 100 µM (inactive) and the GI50 [11] was > 100 µM (inactive). The GI50 [16] was > 100 µM (inactive), the GI50 [13] was > 100 µM (inactive) and the GI50 [14] was > 100 µM (inactive).

`NC(CCCCN/C=C1/N=C(c2ccccc2)OC1=O)C(=O)O` (stereo unspecified) was tested, and the GI50 [1] was > 100 µM (inactive), the GI50 [2] was > 100 µM (inactive) and the GI50 [3] was > 100 µM (inactive). The GI50 [4] was > 100 µM (inactive), the GI50 [5] was 53.6 µM (inactive) and the GI50 [6] was > 100 µM (inactive). For the same molecule, the GI50 [7] was > 100 µM (inactive), the GI50 [15] was > 100 µM (inactive) and the GI50 [8] was > 100 µM (inactive). The GI50 [9] was > 100 µM (inactive), the GI50 [11] was > 100 µM (inactive) and the GI50 [12] was > 100 µM (inactive). The GI50 [16] was > 100 µM (inactive), the GI50 [13] was 52 µM (inactive) and the GI50 [14] was > 100 µM (inactive).

`CC(C)c1cccc(C(C)C)c1NC(=O)C(=O)Cc1nc2ccc([N+](=O)[O-])cc2nc1O` was tested, and the GI50 [1] was 58.5 µM (inactive), the GI50 [2] was > 100 µM (inactive) and the GI50 [3] was 54.5 µM (inactive). For the same molecule, the GI50 [4] was 44.2 µM (inactive), the GI50 [5] was 30.2 µM (inactive) and the GI50 [6] was > 100 µM (inactive). The GI50 [15] was 69.2 µM (inactive), the GI50 [8] was 71.6 µM (inactive) and the GI50 [9] was 39.6 µM (inactive). For the same molecule, the GI50 [10] was 75.3 µM (inactive), the GI50 [11] was > 100 µM (inactive) and the GI50 [12] was > 100 µM (inactive). The GI50 [16] was > 10 µM (inactive), the GI50 [13] was 18.6 µM (inactive) and the GI50 [14] was 50.6 µM (inactive).

In the case of `C/C(=N\NC(=N)N)C(CN(CC(C)C)CC(C)C)C(=O)Nc1ccc(C)cc1C` (stereo unspecified), the GI50 [1] is reported as > 100 µM (inactive), the GI50 [2] is reported as > 100 µM (inactive) and the GI50 [3] is reported as > 100 µM (inactive). For the same molecule, the GI50 [4] was 81.5 µM (inactive), the GI50 [5] was > 100 µM (inactive) and the GI50 [6] was > 100 µM (inactive). For the same molecule, the GI50 [15] was > 100 µM (inactive), the GI50 [8] was > 100 µM (inactive) and the GI50 [9] was > 100 µM (inactive). The GI50 [10] was > 100 µM (inactive), the GI50 [11] was > 100 µM (inactive) and the GI50 [12] was > 100 µM (inactive). The GI50 [16] was > 100 µM (inactive), the GI50 [13] was > 100 µM (inactive) and the GI50 [14] was 59.2 µM (inactive).
